Laboratory results: patent publication US7816519B2, “Derivatives of 1,2-dihydro-7-hydroxyquinolines containing fused rings” (Life Technologies Corporation, priority 2000, dated 2010)
Each block holds one compound with its values, some of them ahead of it.

What was measured:
[1] = Fluorescence quantum yield determination against sulforhodamine 101 reference; type: physicochemical; details: excited at 560 nm, triplicate
Protocol: The fluorescence quantum yield of Compound 41 is determined using sulforhodamine 101 (in ethyl alcohol) as the reference standard (φF=0.90). The concentrations of sulforhodamine 101 (the reference) and Compound 41 are adjusted to obtain an absorbance of 0.25 (in 1 cm cell) at 560 nm. The sample and reference are each excited at 560 nm and their fluorescence spectra obtained. The fluorescence quantum yield of the sample (φF^X) in the indicated solvent was calculated from the following formula, considering that the peak area (AR) of the emission spectrum of the reference and that of the tested dye (AX) can be readily determined: φF^X=AxφF^RAR where φF^R and φF^X are the fluorescence quantum yields of the reference and the testing dye. The measurements are done in triplicate and the estimated errors are no more than 1%. The quantum yields of Compound 41 are determined to be 0.72 (in methyl alcohol) and 0.68 (in water) respectively.

[2] = system: Mouse monocyte-macrophage, Abelson Leukemia Virus Transformed (RAW264.7) cells; experiment: Discrimination of live and dead cells by flow cytometry; type: cell-based; details: heat-killed fraction (50° C., 20 minutes), 30 minutes on ice
Protocol: Selected dyes of the invention are highly polar, and therefore relatively impermeable to the membranes of live cells. These dyes can therefore be used to discriminate cells that have intact versus compromised cell membranes in a single-color assay as follows: Mouse monocyte-macrophage, Abelson Leukemia Virus Transformed (RAW264.7) cells are trypsinized and washed with phosphate buffered saline (PBS), pH 7.2. Approximately 8-10 million cells suspended in 180 μL of PBS, pH 7.2 are placed in a glass test tube and heated in a water bath at 50° C. for 20 minutes to kill a fraction of the cells. […] The mixture is incubated on ice for 30 minutes and washed twice with PBS, followed by addition of 200 μL of PBS, pH 7.2. An identical aliquot of cells is treated with 2 μL of a 150 μM solution of propidium iodide in water (as a control for dead cells).

[3] = system: Neurons from zebrafish embryos; experiment: Neuronal tracing using a hydrazide-labeled fluorophore (microinjection); type: cell-based
Description: Neurons from zebrafish embryos are microinjected with Compound 44, using standard methods as described by Blankenfeld et al. (J. NEUROSCI. METH. 36, 309 (1991)). […] The staining is fixable in the cells using formaldehyde and standard fixing methods.

[4] = Determination of the Ca2+ binding affinity (fluorescence titration, method of Tsien et al.)
Protocol: The fluorescence response and dissociation constant of Compound 58 is determined using the method described by Tsien et al. METH. ENZYM. 172, 230 (1989). Compound 58 (1 mg) is dissolved in deionized water and 5 µL of this solution is diluted into 3 mL of each of two buffers, which are cross diluted to arrive at a series of Ca^2+ concentrations between zero and 35 µM. Emission spectra of the dye solutions are scanned between dilutions to generate a family of curves. Each of these curves has maximal fluorescence emission at approximately 640 nm with an increase in fluorescence emission intensity with increasing Ca^2+ concentration. This intensity change is plotted against the concentration of free Ca^2+ to give a value for the dissociation constant of the indicator. The calculated dissociation constant at 20° C. is 57.5 μM.

[5] = in ethyl alcohol; cited from earlier work
[6] = Fluorescence of selected protein conjugates; type: physicochemical; details: protein conjugates prepared with Compound 42 as in Example 47
Protocol: A series of dye conjugates of goat anti-mouse IgG, streptavidin and other proteins, including R-phycoerythrin (R-PE) are prepared by standard means (Haugland et al., METH. MOL. BIOL. 45, 205 (1995); Haugland, METH. MOL. BIOL. 45, 223 (1995); Haugland, METH. MOL. BIOL. 45, 235 (1995)) using Compound 42 and a succinimidyl ester derivative of CY-5 dye.
A solution of the desired protein is prepared at 10 mg/mL in 0.1 M sodium bicarbonate. The labeling reagents are dissolved in DMF at 10 mg/mL. Predetermined amounts of the labeling reagents are added to the protein solutions with stirring. A molar ratio of 10 equivalents of dye to 1 equivalent of protein is typical, though the optimal amount varies with the particular labeling reagent, the protein being labeled and the protein's concentration, and is determined empirically. The reaction mixture is incubated at room temperature for one hour, or on ice for several hours. The dye-protein conjugate is typically separated from free unreacted reagent by size-exclusion chromatography on BIO-RAD P-30 resin equilibrated with PBS. The initial, protein-containing colored band is collected and the degree of substitution is determined from the absorbance at the absorbance maximum of each fluorophore, using the extinction coefficient of the free fluorophore.

fluorescence quantum yield ([1]; in methyl alcohol): 0.72 | fluorescence quantum yield ([1]; in water): 0.68
Compound: CN1c2cc3c(cc2-c2sc(S(=O)(=O)O)cc2C1(C)C)C(c1c(F)c(SCC(=O)O)cc(F)c1S(=O)(=O)[O-])=c1cc2c(cc1O3)=[N+](C)C(C)(C)c1cc(S(=O)(=O)O)sc1-2 [Compound 41]

Compound: CN1c2cc3c(cc2-c2sc(S(=O)(=O)O)cc2C1(C)C)C(c1c(F)c(SCC(=O)ON2C(=O)CCC2=O)cc(F)c1S(=O)(=O)[O-])=c1cc2c(cc1O3)=[N+](C)C(C)(C)c1cc(S(=O)(=O)O)sc1-2 [Compound 42]
dead cell populations stained, compared with propidium iodide [2]: very similar

Compound: CN1c2cc3c(cc2-c2sc(S(=O)(=O)O)cc2C1(C)C)C(c1c(F)c(SCC(=O)NN)cc(F)c1S(=O)(=O)[O-])=c1cc2c(cc1O3)=[N+](C)C(C)(C)c1cc(S(=O)(=O)O)sc1-2 [Compound 44]
filling and fluorescence of microinjected neurons [3]: neurons rapidly fill with the dye throughout their volume and their red fluorescence is readily observable

maximal fluorescence emission ([4]; Ca2+ buffer series, intensity increases with increasing Ca2+): approximately 640 nm | Kd ([4]; at 20° C., free Ca2+ between zero and 35 µM, read-out: dissociation constant (Ca2+)): 57.5 µM
Compound: Cc1ccc(N(CC(=O)O)CC(=O)O)c(OCCOc2cc(C3=c4cc5c(cc4Oc4cc6c(cc43)-c3sc4ccccc4c3C(C)(C)N6C)=[N+](C)C(C)(C)c3c-5sc4ccccc34)ccc2N(CC(=O)[O-])CC(=O)O)c1 [Compound 58]

Compound: O=S(=O)([O-])c1cc(S(=O)(=O)O)ccc1C1=c2cc3c4c(c2Oc2c1cc1c5c2CCCN5CCC1)CCC[N+]=4CCC3 [sulforhodamine 101]
fluorescence quantum yield of reference standard (φF) [5]: 0.90

Compound: Wheat Germ Agglutinin
Quantum Yield [6]: 0.56
